Test results from PubChem BioAssay AID1963849 (Molecular Pharmacology Branch, DTP, NCI, 2024).
“And” between values parts separate entries of the source, which are not always exact repeats. Equal entries are not always repeated.

System: 299254-011-R-J1-PDC complex spheroid viability
Assay: Anticancer human tumor 299254-011-R-J1-PDC patient-derived melanoma cell line growth inhibition [POLQ]
Details: for viability, T/C: stronger effect = lower value
Experimental: Multicellular complex tumor spheroid response to Polymerase (POL) inhibitors (novobiocin, ART-558, RP6685) in combination with a variety of drugs and investigational agents in selected tumor cell lines
The POL inhibitors (novobiocin, ART-558, and RP6685) were evaluated both individually and in combination with standard of care and investigational anticancer small molecules within a complex spheroid model of solid tumors. . Complex spheroids include a stromal component modeled by human endothelial cells (HUVEC) and fibroblasts modeled by human mesenchymal stem cells (MSCs). The concentration ranges selected for each drug and investigational agent were based upon clinically achievable concentrations if the clinical Cmax of the agent was known.
Compounds. The drugs and investigational agents: novobiocin (NSC847541), ART-558 (NSC835418), RP-6685 (NSC848927), peposertib (NSC802822), ceralasertib (NSC780249), elimusertib (NSC800525), camonsertib (NSC841442), AZD-1390 (NSC803789), olaparib (NSC753686), talazoparib (NSC767125), rucaparib (NSC756644), sotorasib (NSC818433), MRTX-1133 (NSC836407), SN-38 (NSC673596), topotecan (NSC609699), epotoside (NSC141540), doxorubicin (NSC123127), gemcitabine (NSC613327), 5-fluorouracil (NSC19893), paclitaxel (NSC125973), vemurafenib (NSC761431), MSA-2 (NSC828583), SN-011 (NSC837082), adavosertib (NSC754352), prexasertib (NSC758257), carboplatin (NSC241240) and oxaliplatin (NSC266046), were obtained from the National Cancer Institute (NCI) Developmental Therapeutics Program Chemical Repository (21). The FDA-approved anticancer drug set is available from the Developmental Therapeutics Program at https://dtp.cancer.gov/organization/dscb/obtaining/. […] The stock solutions were prepared in dimethyl sulfoxide (DMSO, Sigma-Aldrich, St. Louis, MO, cat. D2650), except for the platinum compounds which were prepared in saline (Quality Biological, Gaithersburg, MD, cat. 114-055-101), at 800-fold the tested concentration and stored at -70 degrees C prior to their use. All drugs and investigational agents were tested over a range starting from a high concentration at or near the clinical Cmax and decreasing in half-log increments. If the clinical Cmax for an agent had not been determined, the highest concentration tested was 10 microM, except for SN-38, which was tested at a high concentration of 1 microM.
Cell Culture. All cells were maintained in an incubator at 37 degrees C and 5% CO2 with 95% humidity. The PDC lines were cultured according to standard operating procedures established by the NCI PDMR (https://pdmr.cancer.gov). Table 3 of the manuscript, lists the cell lines along with the number of the three cell types plated to form the mct-spheroids and media for tumor cell growth. After thawing, all PDC lines, except 997537-175-T-J1-PDC and 415267-285-R-J2-PDC, were cultured in Matrigel-coated flasks prepared with a working solution of 1X Ham's F-12 nutrient mix, without supplementation (Thermo Fisher Scientific, cat. 11765054), 100 U/mL penicillin-streptomycin (Thermo Fisher Scientific, cat. 15140122), and 2.5% Matrigel (Corning Inc., Corning, NY, cat. 354248) for the first three passages. The two PDC lines 997537-175-T-J1-PDC and 415267-285-R-J2-PDC were cultured on uncoated flasks. The 857933-349-R-J2-PDC line was cultured in 6C/Colon 1B media containing advanced DMEM/F-12 (Thermo Fisher Scientific, cat. 12634028), 10 mM HEPES (Thermo Fisher Scientific, cat. 15630080), 1X GlutaMAX supplement (Thermo Fisher Scientific, cat. 35050061), 0.1 mg/mL primocin (InvivoGen, San Diego, CA, cat. ant-pm-2), 10% defined fetal bovine serum, heat inactivated (HyClone Laboratories Inc., Logan, UT, cat. SH30070.03HI), 50% L-WRN conditioned media (ATCC, cat. CRL-3276), 1.25 mM N-Acetyl-L-cysteine (Sigma-Aldrich, cat. A9165), 10 mM nicotinamide (Sigma-Aldrich, cat. N0636), 1X B-27 supplement (Thermo Fisher Scientific, cat. 17504044), 1X N-2 supplement (Thermo Fisher Scientific, cat. […]
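Further: spheroids exposed to drugs for one week before measurement.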
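Wherever viability, T/C is given: percent viability relative to DMSO vehicle control taken as 100%.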

Question: How did the IC50 (curve of first compound, second compound 0.0316 µM) turn out when `COc1cc(C2c3cc4c(cc3C(OC3OC5COC(C)OC5C(O)C3O)C3COC(=O)C23)OCO4)cc(OC)c1O` (stereo unspecified) + COC1C(OC(N)=O)C(O)C(Oc2ccc3c(O)c(NC(=O)c4ccc(O)c(CC=C(C)C)c4)c(=O)oc3c2C)OC1(C)C was run?
Answer: > 10 µM

Question: And the IC50 (curve of first compound, second compound 0.1 µM)?
Answer: 9.11 µM

Question: And the IC50 (curve of first compound, second compound 0.316 µM)?
Answer: > 10 µM

Question: And the IC50 (curve of first compound, second compound 1 µM)?
Answer: 9.93 µM

Question: What about the IC50 (curve of first compound, second compound 3.16 µM) of the same molecule?
Answer: > 10 µM

Question: What about the IC50 (curve of first compound, second compound 10 µM) of the same molecule?
Answer: > 10 µM

Question: What about the viability, T/C (second compound 0.0316 µM, first compound 0.0316 µM) of the same molecule?
Answer: 99%

Question: What about the viability, T/C (second compound 0.0316 µM, first compound 0.1 µM) of the same molecule?
Answer: 85.6%

Question: And the viability, T/C (second compound 0.0316 µM, first compound 0.316 µM)?
Answer: 101%

Question: And the viability, T/C (second compound 0.0316 µM, first compound 1 µM)?
Answer: 83.7%

Question: What about the viability, T/C (second compound 0.0316 µM, first compound 3.16 µM) of the same molecule?
Answer: 65.8%

Question: And the viability, T/C (second compound 0.0316 µM, first compound 10 µM)?
Answer: 55.1%

Question: And the viability, T/C (second compound 0.1 µM, first compound 0.0316 µM)?
Answer: 93.8%

Question: And the viability, T/C (second compound 0.1 µM, first compound 0.1 µM)?
Answer: 96.1%

Question: What about the viability, T/C (second compound 0.1 µM, first compound 0.316 µM) of the same molecule?
Answer: 97.4%

Question: And the viability, T/C (second compound 0.1 µM, first compound 1 µM)?
Answer: 78.3%

Question: What about the viability, T/C (second compound 0.1 µM, first compound 3.16 µM) of the same molecule?
Answer: 65.3%

Question: What about the viability, T/C (second compound 0.1 µM, first compound 10 µM) of the same molecule?
Answer: 48.2%

Question: What about the viability, T/C (second compound 0.316 µM, first compound 0.0316 µM) of the same molecule?
Answer: 98%

Question: And the viability, T/C (second compound 0.316 µM, first compound 0.1 µM)?
Answer: 83.8%

Question: And the viability, T/C (second compound 0.316 µM, first compound 0.316 µM)?
Answer: 90.9%

Question: And the viability, T/C (second compound 0.316 µM, first compound 1 µM)?
Answer: 86.7%

Question: And the viability, T/C (second compound 0.316 µM, first compound 3.16 µM)?
Answer: 75.2%

Question: And the viability, T/C (second compound 0.316 µM, first compound 10 µM)?
Answer: 55.4%

Question: What about the viability, T/C (second compound 1 µM, first compound 0.0316 µM) of the same molecule?
Answer: 95.2%

Question: And the viability, T/C (second compound 1 µM, first compound 0.1 µM)?
Answer: 100%

Question: And the viability, T/C (second compound 1 µM, first compound 0.316 µM)?
Answer: 99.3%

Question: What about the viability, T/C (second compound 1 µM, first compound 1 µM) of the same molecule?
Answer: 101%

Question: And the viability, T/C (second compound 1 µM, first compound 3.16 µM)?
Answer: 77.2%

Question: What about the viability, T/C (second compound 1 µM, first compound 10 µM) of the same molecule?
Answer: 49.9%

Question: What about the viability, T/C (second compound 3.16 µM, first compound 0.0316 µM) of the same molecule?
Answer: 95.5%

Question: And the viability, T/C (second compound 3.16 µM, first compound 0.1 µM)?
Answer: 107%

Question: And the viability, T/C (second compound 3.16 µM, first compound 0.316 µM)?
Answer: 108%

Question: What about the viability, T/C (second compound 3.16 µM, first compound 1 µM) of the same molecule?
Answer: 95.2%

Question: What about the viability, T/C (second compound 3.16 µM, first compound 3.16 µM) of the same molecule?
Answer: 63.6%

Question: And the viability, T/C (second compound 3.16 µM, first compound 10 µM)?
Answer: 59.4%

Question: What about the viability, T/C (second compound 10 µM, first compound 0.0316 µM) of the same molecule?
Answer: 103%

Question: And the viability, T/C (second compound 10 µM, first compound 0.1 µM)?
Answer: 99.7%

Question: And the viability, T/C (second compound 10 µM, first compound 0.316 µM)?
Answer: 101%

Question: And the viability, T/C (second compound 10 µM, first compound 1 µM)?
Answer: 86.6%

Question: And the viability, T/C (second compound 10 µM, first compound 3.16 µM)?
Answer: 80.6%

Question: What about the viability, T/C (second compound 10 µM, first compound 10 µM) of the same molecule?
Answer: 55.9%

Question: What does the source list for `Nc1ccn(C2OC(CO)C(O)C2(F)F)c(=O)n1` (stereo unspecified)?
Answer: viability, T/C (compound 0.0316 µM): 73.4% and 61.2% and 61%; viability, T/C (compound 0.1 µM): 37.7% and 47.8% and 35.1%; viability, T/C (compound 0.316 µM): 42.1% and 40.7% and 40.9%; viability, T/C (compound 1 µM): 40.9% and 50.7% and 30.8%; viability, T/C (compound 3.16 µM): 37.9% and 48.4% and 41.9%; viability, T/C (compound 10 µM): 41.2% and 42.5% and 33.8%; IC50 (curve of compound): 0.0708 µM and 0.0788 µM and 0.053 µM

Question: Which results are given for `COc1ccc([C@@H](O)c2cc(-c3ncnc4cc(N5CCOCC5)ccc34)c(F)cc2Cl)nn1`?
Answer: viability, T/C (compound 0.0316 µM): 106% and 102% and 92.9%; viability, T/C (compound 0.1 µM): 86.3% and 91.9% and 94.6%; viability, T/C (compound 0.316 µM): 106% and 96.2% and 105%; viability, T/C (compound 1 µM): 94% and 100% and 99%; viability, T/C (compound 3.16 µM): 92.6% and 84.1% and 88.5%; viability, T/C (compound 10 µM): 49.3% and 50% and 43.6%; IC50 (curve of compound): 9.87 µM and > 10 µM and 8.57 µM
